According to US20250295790A1, “LECTIN-TARGETING CONJUGATES” (Helmholtz-Zentrum für Infektionsforschung GmbH, priority 2021, published 2025):
≈ marks a conversion by molar mass, not a printed value. Entries after “also recorded” stand apart in the source; their conditions may differ. Like-named read-outs stand apart in the source and are kept apart here.

Legend:
LecA = target: T1, LecA (Pseudomonas aeruginosa, UniProt Q05097); assay: Competitive binding assay based on fluorescence polarization with LecA
T1 construct: made in house
Method: LecA (according to Joachim et al.): A serial dilution of the test compounds was prepared in TBS/Ca (8.0 g/L NaCl, 2.4 g/L Tris, 0.19 g/L KCl, 0.15 g/L CaCl2·2 H2O), with 30% DMSO as co-solvent. […] The measured intensities were reduced by the values of only LecA in TBS/Ca and fluorescence polarization was calculated. The data was analysed with the MARS Data Analysis Software (BMG Labtech GmbH, Germany) and fitted according to the four-parameter variable slope model. Bottom and top plateaus were fixed according to the control compounds in each assay ((p-nitrophenyl)-p-D-galactoside) and the data was re-analysed with these values fixed. A minimum of three independent measurements on three plates was performed for each inhibitor.
Averages and standard deviations were calculated from at least three independent experiments.

[1] = Stability of conjugates in human blood plasma spiked with LB; assay type: in vitro ADME; details: 50% human blood plasma spiked with 10% LB, within three hours
Method: (§1) A 1 mM solution of the studied compound was prepared in PBS (150 mM NaCl, 2.6 mM KCl, 1.4 mM KH2PO4, 10 mM Na2HPO4, pH 7.4) with 20% DMSO. 50 μL of this solution was diluted in 950 μL matrix or human plasma (spiked with 10% LB) on ice. After brief vortex, 100 μL were immediately treated with 100 μL ice-cold MeCN (spiked with […] diphenhydramine as internal standard). The rest of the solution was incubated at 37° C. and 500 rpm in an eppendorf thermomixer. At various time points (30, 60, 120, 180 min), 100 L sample were taken and treated as described above. […] The AUC of the parent drug and its cleavage products and the internal standard was quantified using Compass QuantAnalysis quantification software. The relative AUC was calculated by AUC (compound)/AUC(ISTD). Procaine was used as a positive control as it readily degrades in human plasma.

P. aeruginosa PA14 = assay: Antibiotic susceptibility (MIC assay, broth microdilution); assay type: cell-based, Pseudomonas aeruginosa PA14
Method: Bacterial strains were streaked on LB-agar plates (1% agar) from glycerol stocks and incubated at 37° C. overnight. Colonies were picked from plate and dispersed in fresh MiGler-Hinton broth II (MHB II) to yield an OD600 of 0.08-0.13. This dispersion was diluted 1:100 in fresh MHB II, which was then used for the assay to achieve a final inoculum of 5×10^5 CFU/mL. 50 μL inoculum was mixed with 50 μL of the serial dilution in the corresponding well of the 96-well plate.
The different matrices were prepared under sterile conditions: (i) 5 mL human plasma and 1 mL sterile filtrate from an P. aeruginosa PA14 overnight culture in LB were mixed with 4 mL PBS; (ii) 1 mL sterile filtrate from an P. aeruginosa PA14 overnight culture was diluted in 9 mL PBS; (iii) PBS only and (iv) 5 mL human plasma and 1 mL LB were mixed with 4 mL PBS. 6 L of each compound dilution series was diluted in 115 L matrix (˜-1:20 dilution) in a 96-well format at time point T=−3 h or T=−10 min.
The plates prepared at T=−3 h were sealed with gas-permeable foil and incubated at 37° C. in a humid incubator. The other plates were kept at room temperature. At T=0 h, 50 µL of each well was mixed with 50 μL incoculum (as described above) in double-concentrated MHBII in a sterile 96-well plate.
The plates were sealed with gas-permeable foil and incubated at 37° C. for 18-20 h in a humid incubator. Growth inhibition was assessed by visual inspection and given MIC values are the lowest concentration of antibiotic at which there was no visible growth.

[2] = Prodrug activation assay in human blood plasma spiked with P. aeruginosa PA14 culture supernatant; assay type: in vitro ADME, Pseudomonas aeruginosa PA14; details: 50% human blood plasma spiked with 10% P. aeruginosa culture supernatant, within 3 h
Method: In the prodrug activation assay, the bacterial strain Pseudomonas aeruginosa PA14 wt (DSM 19882) was used. The strain was obtained from the German Collection of Microorganisms and Cell Cultures (DSMZ).
P. aeruginosa PA14 was streaked on LB-agar plates (1% agar) from glycerol stocks and incubated at 37° C. overnight. 2-5 colonies were picked and dispersed in 10 mL LB (10 g/L trypton, 10 g/L NaCl, 5 g/L yeast extracts). This dispersion was incubated overnight at 37° C., 180 rpm under high humidity. The culture was centrifuged (4000 ref, room temperature, 10 min) and the supernatant was filtered (0.22 m pore size). […]
as §1

LecB PAO1 = LecB PAO1 (Pseudomonas aeruginosa, UniProt Q9HYN5); assay type: binding; details: target LecB PAO1; for Ki: calculated as Ki from IC50, read-out: Ki ± s.d.
Method: LecB (LecB PAO1 according to Hauck et al. and LecB PA14 according to Sommer et al.): A serial dilution of the test compounds was prepared in TBS/Ca, with 20% DMSO as cosolvent. […] Fluorescence was measured and analysed as for LecA. Bottom and top plateaus were fixed according to the control compound in each assay (1-fucose) and the data was re-analysed with these values fixed. A minimum of three independent measurements on three plates was performed for each inhibitor.

LecB PA14 = LecB PA14 (Pseudomonas aeruginosa, UniProt A0A0H2ZE85); assay type: binding; details: target LecB PA14
Method: LecB (LecB PAO1 according to Hauck et al. and LecB PA14 according to Sommer et al.): A serial dilution of the test compounds was prepared in TBS/Ca, with 20% DMSO as cosolvent. A concentrated solution of LecB PAO1 or PA14 was diluted in TBS/Ca together with the fluorescent reporter ligand (N-(fluorescein-5-yl)-N′-(α-l-fucopyranosyl ethylen)-thiocarbamide) to yield concentrations of 300 nM and 20 nM, respectively. 10 μL of this mix was added to 10 μL serial dilutions of the test compounds in a black 384-well microtiter plates (Greiner Bio-One, Germany, cat. no. 781900) in triplicates. After centrifugation (2680 ref, 1 min, room temperature), the reactions were incubated for 4-8 h at room temperature in a humidity chamber. Fluorescence was measured and analysed as for LecA. Bottom and top plateaus were fixed according to the control compound in each assay (1-fucose) and the data was re-analysed with these values fixed. A minimum of three independent measurements on three plates was performed for each inhibitor.

[3] = Matrix 1: PBS, pre-incubation 3 h
[4] = Matrix 1: PBS, pre-incubation <10 min
[5] = Matrix 2: 50% human blood plasma + 10% P. aeruginosa culture supernatant in PBS, pre-incubation 3 h
[6] = Matrix 3: 10% P. aeruginosa culture supernatant in PBS, pre-incubation 3 h
[7] = Matrix 3: 10% P. aeruginosa culture supernatant in PBS, pre-incubation <10 min
[8] = Matrix 4: 50% human blood plasma + 10% LB in PBS, pre-incubation 3 h
[9] = Matrix 4: 50% human blood plasma + 10% LB in PBS, pre-incubation <10 min
[10] = target LecA, calculated as Ki from IC50, read-out: Ki ± s.d.
[11] = target LecA, read-out: IC50 ± s.d.
[12] = Matrix 2: 50% human blood plasma + 10% P. aeruginosa culture supernatant in PBS, pre-incubation <10 min

T1 sequence (Q05097 whole entry): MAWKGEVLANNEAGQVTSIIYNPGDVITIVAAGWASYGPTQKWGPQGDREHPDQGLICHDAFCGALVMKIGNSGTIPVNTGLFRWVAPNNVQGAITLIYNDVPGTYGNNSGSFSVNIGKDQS
Sequence of LecB PAO1 (Q9HYN5 entry or part of it): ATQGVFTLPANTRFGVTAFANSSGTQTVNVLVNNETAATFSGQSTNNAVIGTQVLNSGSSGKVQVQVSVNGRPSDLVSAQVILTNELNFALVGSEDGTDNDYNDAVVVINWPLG
Sequence of LecB PA14 (A0A0H2ZE85 entry or part of it): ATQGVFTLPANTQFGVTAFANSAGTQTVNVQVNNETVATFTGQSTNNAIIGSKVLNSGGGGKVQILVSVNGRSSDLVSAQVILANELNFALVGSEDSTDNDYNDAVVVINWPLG

Row | Compound | release of antibiotic cargo [1] | MIC (P. aeruginosa PA14; [3]) [µM] | MIC (P. aeruginosa PA14; [4]) [µM] | MIC (P. aeruginosa PA14; [5]) [µM] | MIC (P. aeruginosa PA14; [6]) [µM] | MIC (P. aeruginosa PA14; [7]) [µM] | MIC (P. aeruginosa PA14; [8]) [µM] | MIC (P. aeruginosa PA14; [9]) [µM] | release of antibiotic cargo [2] | MIC (P. aeruginosa PA14; [12]) [µM] | further results
1 | O=[N+]([O-])c1ccc(S[C@@H]2O[C@H](CO)[C@H](O)[C@H](O)[C@H]2O)cc1 [pNP-β-D-Gal, p-nitrophenyl-β-thio-galactoside, reference compound] | – | – | – | – | – | – | – | – | – | – | IC50 (LecA): 61.9 ± 0.6 µM; Ki (LecA): 26.9 ± 0.25 µM
2 | CC(C)C[C@H](NC(=O)CNC(=O)[C@H](C)NC(=O)c1ccc(S(=O)(=O)NC[C@H]2O[C@@H](C)[C@@H](O)[C@@H](O)[C@@H]2O)cc1)C(=O)N[C@@H](C)C(=O)N1CCN(c2cc3c(cc2F)c(=O)c(C(=O)O)cn3C2CC2)CC1 [Compound 25] | no significant release of their antibiotic cargo | >25 | >25 | ≥25 | ≥25 | ≥25 | ≥25 | ≥25 | do not release ciprofloxacin; also recorded: degradation stopped at the stage of the secondary amide Ala-ciprofloxacin | – | IC50 (LecB PAO1): 4.63 ± 1.99 µM; IC50 ± s.d. (LecB PAO1): one-digit micromolar range; Ki (LecB PAO1): 1.92 ± 0.93 µM; IC50 (LecB PA14): 1 ± 0.32 µM; Ki (LecB PA14; calculated as Ki from IC50, read-out: Ki ± s.d.): 0.36 ± 0.12 µM
3 | CC(C)CC(NC(=O)CNC(=O)C(C)NC(=O)c1ccc(SC2OC(CO)C(O)C(O)C2O)cc1)C(=O)NC(C)C(=O)NCC1CCN(c2cc3c(cc2F)c(=O)c(C(=O)O)cn3C2CC2)C1 (centres unmarked) [Compound 48] | no significant release of their antibiotic cargo | >25 | >25 | 1.56 | 1.56 to 3.13 | 1.56 to 3.13 | – | >25 | release their antibiotic cargo; also recorded: released a significant amount of their antibiotic cargo; also recorded: efficiently released their antibiotic cargo | 3.13 to 12.5 | Ki (LecA; [10]): 11.2 ± 0.73 µM; IC50 (LecA; [11]): 28 ± 1.61 µM
4 | CC(C)C[C@H](NC(=O)CNC(=O)[C@H](C)NC(=O)c1ccc(S[C@@H]2O[C@H](CO)[C@H](O)[C@H](O)[C@H]2O)cc1)C(=O)N[C@@H](C)C(=O)N1CCN(c2cc3c(cc2F)c(=O)c(C(=O)O)cn3C2CC2)CC1 [Compound 24] | no significant release of their antibiotic cargo | >25 | >25 | ≥25 | ≥25 | ≥25 | ≥25 | ≥25 | do not release ciprofloxacin; also recorded: degradation stopped at the stage of the secondary amide Ala-ciprofloxacin | – | Ki (LecA; [10]): 12.9 ± 1.12 µM; IC50 (LecA; [11]): 31.7 ± 2.46 µM
5 | O=C(O)c1cn(C2CC2)c2cc(N3CCNCC3)c(F)cc2c1=O [Compound 1, Ciprofloxacin, reference compound] | – | – | – | 0.156 to 0.25 | – | – | 0.156 to 0.313 | 0.156 to 0.313 | – | 0.25 to 0.313 | –
6 | CC(C)CC(NC(=O)CNC(=O)C(C)NC(=O)c1ccc(S(=O)(=O)NCC2OC(C)C(O)C(O)C2O)cc1)C(=O)NC(C)C(=O)NCC1CCN(c2cc3c(cc2F)c(=O)c(C(=O)O)cn3C2CC2)C1 (centres unmarked) [Compound 49] | no significant release of their antibiotic cargo | >25 | >25 | 1.56 to 3.13 | 1.56 to 6.25 | 3.13 to 6.25 | – | ≥25 | release their antibiotic cargo; also recorded: released a significant amount of their antibiotic cargo; also recorded: efficiently released their antibiotic cargo | 3.13 to 6.25 | MIC (P. aeruginosa PA14; Matrix 3, <10 min pre-incubation (text b309)): 3.13 µM (≈ 3.13 µg/mL); IC50 (LecB PAO1): 4.29 ± 2.99 µM; IC50 ± s.d. (LecB PAO1): one-digit micromolar range; Ki (LecB PAO1): 1.75 ± 1.4 µM
7 | NC[C@@H]1CCN(c2nc3c(cc2F)c(=O)c(C(=O)O)cn3C2CC2)C1 [Compound 3, (S)-7-(3-(aminomethyl)-1-pyrrolidinyl)-1-cyclopropyl-6-fluoro-1,4-dihydro-4-oxo-1,8-naphthyridine-3-carboxylic acid, reference compound] | – | – | – | – | – | – | – | – | – | – | MIC (P. aeruginosa PA14; Pseudomonas aeruginosa, PA14, read-out: MIC (parent drug)): 0.29 to 1.45 µM (≈ 0.1 to 0.502 µg/mL)
